Values joined by “and” are separate entries in the source; they are usually repeats but may differ in a detail not shown here. Identical values can stand only once. Like-named read-outs stand apart in the source and are kept apart here.

This note sets out measurements from patent publication US7951789B2 (priority 2006, dated 2011).

Series [1] can be described thus: In vivo studies in rat: distribution of A550 and LddATP in the liver. The conditions noted are these: male rats. The protocol:
Distribution of NM-204 (the compound of Example 1 (Hydroxy-tBuSATE N-benzylphosphoramidate derivative of L-ddA) (A550) in the rat liver was evaluated following a single intravenous (I.V.) or oral administration of A550 (NM-204) at a dose of 20 (oral) or 10 (I.V.) mg/Kg body weight. The dose solutions were prepared on the same day prior to dose administration.
At the specified time point (1 and 3 hours for IV animals or 1, 3 and 8 hours for oral animals), each animal was euthanized by CO2 gas followed by exsanguination via the abdominal vein. Livers were collected immediately after sacrifice, flash frozen in liquid nitrogen, placed on dry ice, and later stored at −70° C., before being analyzed.
Control rat liver samples were taken from whole frozen livers (Bioreclamation, Inc. Hicksville, N.Y.) with the aid of a tissue coring utensil (Harris Unicore, 8.0 mm, VWR,). Each ˜0.1 g sample was placed in individual 2 mL poly vials with 0.940 mL of 80% MeOH/20% DIH2O and homogenates were prepared using a mechanical tissue disruptor (Tissue Master, Omni-International, Inc, Marietta Ga.). The vials received a 10 μl aliquot of a working stock solution and a 50 μl aliquot of the ISTD before vortexing for ˜30 sec. The mixtures were stored overnight at −20° C. and the next day were removed for 10 min of centrifugation in a benchtop centrifuge. Each supernatant was transferred to individual centrifugation filtration units (0.45 μm) and the resulting filtrates were transferred to HPLC vials for the LC/MS/MS analysis. The final concentrations of ddATP in the calibration standards was 1000, 500, 250, 125, 50, and 0 pmol/ml. Each calibration standard was directly injected in a 50 μL volume onto the ion-exchange column for analysis. Standard curve analysis of calibration standards from control liver extracts was conducted.
Analysis of ddATP was done by an ion-exchange chromatography method with on-line positive ionization ESI-MS/MS detection in multiple reaction monitoring (MRM) detection mode. […] This is equivalent to a range of […] per gram liver by the sample preparation employed. The HPLC MS MS conditions described in Example 5 were utilized.

Series [2] deals with HCV Conl subgenomic replicon (GS4.1 cells). Description: HCV replicon assay (NS4A ELISA, HCV ELISA 2). It is filed as cell-based. To be noted: Hepatitis C virus. The protocol: (§1) Huh-7 cells containing HCV Conl subgenomic replicon (GS4.1 cells), (C. Seeger; Fox Chase University, Philadelphia, Pa., USA), are grown in Dulbecco's Modified Eagle Medium (DMEM) supplemented with 10% fetal bovine serum (FBS), 2 mM L-glutamine, 110 mg/L sodium pyruvate, 1×non-essential amino acids, 100 U/mL penicillin-streptomycin and 0.5 mg/mL G418 (Invitrogen). For dose-response testing, the cells are seeded in 96-well plates at 7.5×10^3 cells/well in a volume of 50 μL and incubated at 37° C./5% CO2. Three hours after plating, 50 μL of ten 2-fold serial dilutions of compounds (highest concentration, 75 μM) are added and cell cultures were incubated at 37° C./5% CO2 in the presence of 0.5% DMSO. Alternatively, compounds are tested at a single concentration of 15 μM. In all cases, Huh-7 cells lacking the HCV replicon served as negative control. The cells are incubated in the presence of compounds for 72 hours after which they were monitored for expression of the NS4A protein by enzyme-linked immunosorbent assay (ELISA). For this, the plates were then fixed for 1 min with 1:1 acetone:methanol, washed twice with phosphate-buffered saline (PBS), 0.1% Tween 20, blocked for 1 hour at room temperature with TNE buffer containing 10% FBS and then incubated for 2 h at 37° C. with the anti-NS4A mouse monoclonal antibody A-236 (ViroGen) diluted in the same buffer. After washing three times with PBS, 0.1% Tween 20, the cells are incubated 1 hour at 37° C. with anti-mouse immunoglobulin G-peroxidase conjugate in TNE, 10% FBS. After washing as described above, the reaction is developed with O-phenylenediamine (Zymed). The reaction is stopped after 30 minutes with […] and the absorbance is read at 492 nm using a Sunrise Tecan spectrophotometer. EC50 values are determined from the % inhibition versus concentration data using a sigmoidal non-linear regression analysis based on four parameters with Tecan Magellan software. […] For cytotoxicity evaluation, GS4.1 cells are treated with compounds as described above and cellular viability was monitored using a Cell Titer 96 AQueous One Solution Cell Proliferation Assay (Promega). CC50 values are determined from the % cytotoxicity versus concentration data with Tecan Magellan software as described above.
A general note: A replicon is a self-replicating genome or part of one, used to study replication in cells.

A short description of series [3]: Cytotoxicity evaluation in GS4.1 cells (Cell Titer 96 AQueous One Solution). It is filed as cell-based. The conditions noted are these: human; for CC50: 72 hours. The protocol:
as §1

Setting [4] is: IV dose 10 mg/kg, 1 hr, individual animals, 10 mg/kg.
Where [5] appears, read: IV dose 10 mg/kg, 3 hrs, individual animals, 10 mg/kg.
Setting [6] is: Oral dose 20 mg/kg, 1 hr, individual animals, 20 mg/kg.
Where [7] appears, read: Oral dose 20 mg/kg, 3 hrs, individual animals, 20 mg/kg.
[8] abbreviates: Oral dose 20 mg/kg, 8 hrs, individual animals, 20 mg/kg.
Setting [9] is: GS4.1 cells, 72 hours, NS4A ELISA, read-out: HCV ELISA 2 EC50.

With “Hydroxy-tBuSATE N-benzylphosphoramidate derivative of L-ddA [A550 (Ex 1)]”, the “Concentration Compound (A550) (Ex 1) in liver” value is 80.0 pmol/g liver in series [1] (IV dose 10 mg/kg, 1 hr, Mean); 65.8 pmol/g liver and 89.1 pmol/g liver and 85.1 pmol/g liver in series [1] (setting [4]); 27.9 pmol/g liver in series [1] (IV dose 10 mg/kg, 3 hrs, Mean); 28.3 pmol/g liver and 26.0 pmol/g liver and 29.3 pmol/g liver in series [1] (setting [5]); 251 pmol/g liver in series [1] (Oral dose 20 mg/kg, 1 hr, Mean); 411 pmol/g liver and 272 pmol/g liver and 70.2 pmol/g liver in series [1] (setting [6]). Further, the “Concentration Compound (A550) (Ex 1) in liver” value in series [1] (Oral dose 20 mg/kg, 3 hrs, Mean) is 204 pmol/g liver; in series [1] (setting [7]), 360 pmol/g liver and 92.1 pmol/g liver and 161 pmol/g liver; in series [1] (Oral dose 20 mg/kg, 8 hrs, Mean) it was 20.1 pmol/g liver; in series [1] (setting [8]), 16.4 pmol/g liver and 28 pmol/g liver and 16.2 pmol/g liver. Further, the “Concentration ddA-TP in liver” value is 2025 pmol/g liver and 1930 pmol/g liver and 1355 pmol/g liver in series [1] (setting [4]); 17.8 pmol/10^6 cells and 16.9 pmol/10^6 cells and 11.9 pmol/10^6 cells in series [1] (IV dose 10 mg/kg, 1 hr, individual animals, hepatocellularity 114 × 10^6 cells per gram liver, 10 mg/kg); 1345 pmol/g liver and 11.8 pmol/10^6 cells and 1940 pmol/g liver and 17.0 pmol/10^6 cells and 2990 pmol/g liver and 26.2 pmol/10^6 cells in series [1] (setting [5]); 210 pmol/g liver and 1.8 pmol/10^6 cells and 575 pmol/g liver and 5.0 pmol/10^6 cells and 400 pmol/g liver and 3.5 pmol/10^6 cells in series [1] (setting [6]); 200 pmol/g liver and 1.8 pmol/10^6 cells and 330 pmol/g liver and 2.9 pmol/10^6 cells and 405 pmol/g liver and 3.6 pmol/10^6 cells in series [1] (setting [7]); 280 pmol/g liver and 2.5 pmol/10^6 cells and 805 pmol/g liver and 5.2 pmol/10^6 cells and 275 pmol/g liver and 2.4 pmol/10^6 cells in series [1] (setting [8]).

The term EC50 denotes the concentration needed to bring the measured effect to its halfway point. The CC50 is the concentration that lowers cell viability or growth by half. For the compound `CC(C)(CO)C(=O)SCCOP(=O)(NCc1ccccc1)OC[C@H]1O[C@@H](n2cnc3c(=O)[nH]c(N)nc32)[C@](C)(O)[C@@H]1O` (mixture of isomers) [Example B299, Hydroxy-tBuSATE N-benzylphosphoramidate Derivative of 2′-C-methylguanosine], in series [2] (setting [9]), the EC50 was under 1 µM. The same compound displayed a CC50 in series [3] of over 75 µM.

For the compound `CC(C)(CO)C(=O)SCCOP(=O)(NCc1ccccc1)OC[C@H]1O[C@@H](n2cnc3c(=O)[nH]c(N)nc32)[C@]2(C)OC(=O)O[C@H]12` (stereo in doubt) [Example B307, N-Benzylaminyl-O-(hydroxy-tert-butyl-S-acyl-2-thioethyl)-2′,3′-O-carbonate-2′-C-methylguanosin-5′-yl phosphate], the EC50 in series [2] (setting [9]) is under 1 µM. Moreover, the CC50 in series [3] was over 75 µM.

On to `C#C[C@@]1(F)[C@H](O)[C@@H](COP(=O)(NCc2ccccc2)OCCSC(=O)C(C)(C)CO)O[C@H]1n1cnc2c(=O)[nH]c(N)nc21` (stereo in doubt) [Example B503, N-Benzylaminyl-{9-[(2R)2-deoxy-2-fluoro-2-C-ethynyl-β-D-erythro-furanosyl]-guanin}-5′-yl-O-(hydroxy-tert-butyl-S-acyl-2-thioethyl) Phosphate], for which, in series [2] (setting [9]), the EC50 lay within 1 to 10 µM. Besides, the CC50 in series [3] is over 75 µM.

On to `C[C@@]1(O)[C@H](O)[C@@H](CO)O[C@H]1n1cnc2c(Cl)ncnc21` [Example A849, 9-[2-C-methyl-β-ribofuranosyl]-6-chloropurine, reference compound], for which, in series [2] (setting [9]), the EC50 was under 1 µM. The compound further came in with a CC50 in series [3] of over 75 µM.

With `CN(Cc1ccccc1)P(=O)(OCCSC(=O)C(C)(C)CO)OC[C@H]1O[C@@H](n2ccc(N)nc2=O)[C@](C)(O)[C@@H]1O` (mixture of isomers) [Example B308, Hydroxy-tBuSATE N-methylbenzylphosphosphoramidate Derivative of 2′-C-methyl-cytidine], the EC50 in series [2] (72 h, read-out: HCV ELISA 2 EC50 (μM)) is 1 to 10 µM. The CC50 at 72 h in series [3] is over 75 µM.

Turning to `C[C@@]1(O)[C@H](O)[C@@H](CO)O[C@H]1n1cnc2c(N)ncnc21` [A374 (NM80), 2′-C-methyladenosine, reference compound], the EC50 in series [2] (setting [9]) was under 1 µM. For the same compound, in series [3], the CC50 was at most 75 µM.

As to `C[C@@]1(O)[C@H](O)[C@@H](CO)O[C@H]1n1ccc(N)nc1=O` [A634 (NM107), 2′methyl cytidine, reference compound], the EC50 in series [2] (setting [9]) lay in the range of 1 to 10 µM. For the same compound, the CC50 in series [3] is over 75 µM.

Regarding `C#C[C@@]1(F)[C@H](O)[C@@H](CO)O[C@H]1n1cnc2c(=O)[nH]c(N)nc21` [Example D961], the EC50 in series [2] (setting [9]) was over 10 µM. In series [3], the CC50 is over 75 µM.

With `CC(C)C(N)C(=O)O[C@@H]1[C@@H](COP(=O)(NCc2ccccc2)OCCSC(=O)C(C)(C)CO)O[C@@H](n2ccc(N)nc2=O)[C@]1(C)O` (stereo partly drawn) [Example B234, Hydroxy-tBuSATE N-benzylphosphoramidate Derivative of 3′-O-L-valinyl-2′-C-methylcytidine], the EC50 in series [2] (setting [9]) is 1 to 10 µM. In series [3], this compound registered a CC50 of over 75 µM.
